Data on three molecules can be found in paper PMC11984388, “A brain-accessible peptide modulates stroke inflammatory response and neurotoxicity by targeting BDNF-receptor TrkB-T1 specific interactome” (Theranostics, 2025).

Where two headings read alike, the source gives them in different places. Residues, ends and D or L forms follow the SMILES beside them. *: point of attachment. Biotin = O=C1N[C@H]2[C@H](CS[C@H]2CCCCC(=O)*)N1

The test system of data set [1] is RhoGDI. Nature of the data set: Western blot of total RhoGDI levels. It counts as cell-based, rat. Conditions: peptide 25 µM 30 min, mean, n = 6-7 (Fig S3). On the procedure:
Ce lls were lyse d in RI P A buffer (50 mM Tris-HCl pH 8.0, 150 mM NaC l, 1% sodium deoxycholate , 1% NP-40, 0.1% SDS, 1 mM DT T), supple me nted with protease and phospha tase inhibitors as above, for 30 min at 4 °C. Then, cell lysa te s were sonic ated using a Bioruptor apparatus and centrifuga ted at 4 °C for 20 min at 10,000 rpm. The protein conce ntration in lysa te s was es tablished with BC A Prote in As say Kit (Thermo Fisher) follow ed by 5 min denaturalization in SDS-sa mple buffer at 95º. Equal amounts of total lysa te s were resolved in Tris-Glycine SDS-PAGE and transferre d to a nitroc ellulos e membrane (GE Healthca re ) in 25 mM Tris HCl pH 8.3, 250 mM glycine and 10% methanol, using an electr ic curre nt of 400 mA for 70 min. After transfer, membranes were sta ine d with a Ponceau S solution to chec k for its effic acy. Then, membranes were blocked for 30 min with a 5% non-fat […]
dry milk solution in Tris Buffere d Saline-Tween (TBS-T, 20 mM Tris HCl pH 7.5, 137 mM NaC l, 0.05% Tween-20) and incubated overnight at 4°C with prima ry antibodies . Next, membranes were was hed with TBS-T and incubated with the appropria te anti-rabbit or anti-mouse peroxidase-conjugated se condary antibodies (Bethyl) for 1 h. To conclude, immunore activity was detecte d using Clar ity Wes ter n ECL Blotting Substrate (BioRad) and band intensity was quantified by dens itome tric analys is (Photos hop, Adobe). Levels of the protein of interest were normalized using those of neuron- spe cific enolas e (NSE) present in the sa m e sa mple and express ed relative to values obtained in their respec tive controls, arbitrarily given a 100% value. NSE was use d as a neuronal loading control sinc e it is not af fe cted by NM DA treatment. Exceptionally, levels of TrkB -T1 were normalized to those of ß- actin in the comparison of prima ry mixed cultures and those of as trocytes . Multiple independent experiments were car r ied out and quantitated as detailed in the figure legends .
Cell transfection and gene reporter ass ays
Plasmids contained minimal CREB or MEF2 response elements upstream firefly luciferase reporter gene (respectively, pCRE or pMEF2; see details in Supplementary Table 1). Primary cultures, without the AraC treatment, were transfected at 11 DIVs with 0.4 µg of plasmids using Lipofectamine 2000. […] Protein extracts were obtained using Passive Lysis Buffer (Promega, Cat# E1941) and luciferase activity was detected by a luminometer (GloMax 96 microplate luminometer, Promega), using REAP buffer (25 mM glycylglycine, 15 mM SO4Mg, 4 mM EGTA, 15 mM potassium phosphate pH 7.8, 3.3 mM ATP, 1 mM DTT, 75 µM luciferin). […]
A general note: In western blotting, separated proteins are transferred to a membrane and probed.

The test system of data set [2] is primary cortical cultures. Conditions: 25 µM.
Data set [3] in a line: Beam walking test after photothrombotic ischemia. It counts as in vivo, mice. To be noted: male mice.
Data set [4] concerns CD68+ cells. As to the kind of experiment: Immunohistochemistry of macrophages/activated microglia in ischemic brain. It counts as in vivo. Conditions: male mice, 3 nmol/g, 24 h of insult; versus TMyc. How it is done:
The brains of animals injected one hour af ter the initiation of the photothrombotic damage with vehicle (saline), TMyc or TT1Ct (3 nmol/g) were process ed and cryoprote cted as before indicated. The duration of damage before sa cri f i ce was 5 h (male and female) or 24 h (male).
Coronal froze n se ctions were incubated with blocking solution as des cribe d in flota tion for 1 h at room temperature and then overnight with prima ry antibodies diluted in 4% goat se rum and 0.3% Triton X-100 in PBS at 4°C. After was hing, slides were incubated 1 h with Alexa Fluor 546- conjugated goat anti-rabbit or AlexaFluor 647- conjugated goat anti-mouse se condary antibodies to visua liz e the prima ry antibodies and DAPI (5 μg/ml). Only for Iba1 sta ining, blocking solution was 2.5% BS A, 5% goat se rum, 0.5% Triton X-100 in PBS, and se ctions were incubated with prima ry antibody 24 h at RT follow ed by was hing and Alexa Fluor 546-conjugated goat anti-rabbit and DAPI incubation for 1 h. Sections were then was hed in PBS, mounted on slides , dried for 15 min at 37 °C on a hot plate, or air dried overnight and then cover slipped with DPX or Prolong Diamond. Ce ll Obs erve d images were obtained with Zeiss microscope Observe r.Z1 using a 10x Plan-Apochromatic objective. […]

The mark [5] stands for this setting: then BDNF 100 ng/ml 30 min, relative to basal Bio-TMyc (100%).

Regarding `CC[C@H](C)[C@H](NC(=O)[C@H](CC(C)C)NC(=O)[C@H](CCCCN)NC(=O)[C@H](CCC(N)=O)NC(=O)[C@H](CCC(=O)O)NC(=O)[C@H](CCC(=O)O)NC(=O)[C@H](C)NC(=O)[C@H](CCCNC(=N)N)NC(=O)[C@H](CCCNC(=N)N)NC(=O)[C@H](CCCNC(=N)N)NC(=O)[C@H](CCC(N)=O)NC(=O)[C@H](CCCNC(=N)N)NC(=O)[C@H](CCCNC(=N)N)NC(=O)[C@H](CCCCN)NC(=O)[C@H](CCCCN)NC(=O)[C@H](CCCNC(=N)N)NC(=O)CNC(=O)[C@H](Cc1ccc(O)cc1)NC(=O)CCCC[C@@H]1SC[C@@H]2NC(=O)N[C@@H]21)C(=O)N[C@@H](CO)C(=O)N[C@@H](CCC(=O)O)C(=O)N[C@@H](CCC(=O)O)C(=O)N[C@@H](CC(=O)O)C(=O)N[C@@H](CC(C)C)C(=O)N[C@@H](CC(C)C)C(=O)N[C@@H](CCCNC(=N)N)C(N)=O` [Bio-TMyc, reference compound] (Biotin-YGRKKRRQRRRAEEQKLISEEDLLR-NH2), the RhoGDI total levels in data set [1] (basal, relative to basal conditions with Bio-TMyc (100%)) is reported as 100%; in data set [1] (setting [5]), 92%. The results for the “Relative cell viability (%)” value in data set [2] (4 h), in data set [2] (6 h) and in data set [2] (24 h) were 100%, 97% and 97%, respectively.
Take `CC[C@H](C)[C@H](NC(=O)[C@H](CCCCN)NC(=O)[C@H](Cc1c[nH]cn1)NC(=O)[C@H](Cc1ccccc1)NC(=O)[C@H](CC(C)C)NC(=O)[C@@H](NC(=O)[C@H](Cc1ccccc1)NC(=O)[C@H](CCCNC(=N)N)NC(=O)[C@H](CCCNC(=N)N)NC(=O)[C@H](CCCNC(=N)N)NC(=O)[C@H](CCC(N)=O)NC(=O)[C@H](CCCNC(=N)N)NC(=O)[C@H](CCCNC(=N)N)NC(=O)[C@H](CCCCN)NC(=O)[C@H](CCCCN)NC(=O)[C@H](CCCNC(=N)N)NC(=O)CNC(=O)[C@H](Cc1ccc(O)cc1)NC(=O)CCCC[C@@H]1SC[C@@H]2NC(=O)N[C@@H]21)C(C)C)C(=O)N1CCC[C@H]1C(=O)N[C@@H](CC(C)C)C(=O)N[C@@H](CC(=O)O)C(=O)NCC(N)=O` [Bio-sTT1Ct] (Biotin-YGRKKRRQRRRFVLFHKIPLDG-NH2): the RhoGDI total levels in data set [1] (setting [5]) is on record as 93%; in data set [1] (then NMDA 30 min, relative to basal Bio-TMyc (100%)) it was 91%. For the same molecule, the results for the “Relative cell viability (%)” value in data set [2] (6 h) and in data set [2] (24 h) were 99% and 103%, respectively.
Consider Ac-YGRKKRRQRRRPPFVLFHKIPLDG-NH2 [TT1Ct], for which the “Recovery in beam walking test” value in data set [3] (TT1Ct versus TMyc slips) is listed as 49%. Besides, in data set [3] (contralateral hind paw slips, beam walking 24 h after insult, 3 nmol/g i.v. 1 h after damage, mean ± SEM, n = 10-12), the Number of slips came to 5 ± 1. Further, in data set [4], the “Effect on CD68+ cells in the infarct and surrounding tissues” value is listed as “greatly decreased”.
